Assay results reported in patent US20260226022A1, “CRYSTAL FORM AND USE OF PARP7 INHIBITOR AND SALT THEREOF” (QILU PHARMACEUTICAL CO., LTD., priority 2023, published 2026).
“Also recorded” adds a separate entry of the source. Values belong to the compound of their own block, whether it stands above or below them.

Legend:
[1] = Hygroscopicity test by dynamic vapor sorption (DVS); format: physicochemical; details: for Hygroscopicity evaluation: Chinese Pharmacopoeia 2020 classes; for Weight gain at 80% RH / Weight gain at 90% RH: DVS, 25° C.; for Crystal form after DVS: XRPD before and after the DVS test
Protocol: The moisture adsorption of the sample was determined using a dynamic vapor sorption instrument from DVS Intrinsic. The sample was placed in a tared sample basket and weighed by the instrument automatically and analyzed according to the parameters in Table 10.

PARP7 = molecular target: T1, PARP7 (Homo sapiens, UniProt Q7Z3E1); test: PARP7 in vitro enzymatic assay; format: biochemical
T1 sequence (Q7Z3E1 1-657): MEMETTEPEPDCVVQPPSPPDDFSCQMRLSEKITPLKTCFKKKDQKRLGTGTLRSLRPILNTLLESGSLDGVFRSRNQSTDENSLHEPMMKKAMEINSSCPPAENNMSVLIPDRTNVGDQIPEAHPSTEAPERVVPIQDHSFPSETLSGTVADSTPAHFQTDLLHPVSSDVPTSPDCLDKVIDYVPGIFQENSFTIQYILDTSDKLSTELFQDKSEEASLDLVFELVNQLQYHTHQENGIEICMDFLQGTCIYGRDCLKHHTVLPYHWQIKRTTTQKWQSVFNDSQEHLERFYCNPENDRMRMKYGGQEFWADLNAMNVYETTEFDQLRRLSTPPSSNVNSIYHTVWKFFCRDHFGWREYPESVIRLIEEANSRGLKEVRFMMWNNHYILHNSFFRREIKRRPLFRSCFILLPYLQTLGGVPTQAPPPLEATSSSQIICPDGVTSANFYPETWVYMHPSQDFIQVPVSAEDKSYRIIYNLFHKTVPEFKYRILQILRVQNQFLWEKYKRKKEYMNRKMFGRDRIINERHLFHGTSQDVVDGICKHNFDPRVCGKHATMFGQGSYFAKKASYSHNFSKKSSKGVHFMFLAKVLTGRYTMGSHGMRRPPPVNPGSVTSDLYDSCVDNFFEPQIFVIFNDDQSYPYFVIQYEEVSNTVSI
Protocol: In this experiment, the inhibitory effect of the compound of formula (I) on PARP7 enzyme activity was tested by serial dilution of the tested compounds and assayed in replicates. 1. A histone-coated 384-well plate was prepared by adding 25 μL of histone solution to each well and incubating at 4° C. overnight. 2. PBST buffer, blocking buffer and assay buffer were prepared. 3. The histone-coated 384-well plate was washed 3 times using PBST buffer. Blocking was performed at room temperature for 1 hour using 50 μL of blocking buffer. The plate was washed 3 times using PBST buffer. 4. Compound preparation: A 2000× compound was prepared in a 96-well source plate. 50 nL of the compound was transferred from the source plate to a 96-well intermediate plate. Each well was supplemented with 39.95 μL of assay buffer. The plate was shaken well and centrifuged at 1000 rpm for 1 minute. 5 μL of the compound in DMSO was transferred to each well. 5. Enzymatic reaction: An enzyme mixture was incubated at 25° C. for 10 minutes. 10 μL of the enzyme mixture was added and incubated with the compound for 10 minutes at room temperature. 10 μL of assay buffer was added to the negative control wells of the assay plate. 10 μL of 2.5× Biotin-NAD+ was added to each well, followed by incubation at 25° C. for 60 min. […] The plate was immediately read using Paradigm and detected for reads at Ex550/Em620. […]

[2] = In vivo pharmacokinetic determination in mice (intravenous bolus and oral); set-up: species or system C57BL/6 mice
[3] = In vivo pharmacokinetic determination in rats (intravenous bolus and oral); set-up: species or system SD rats
Source text: To study the in vivo plasma pharmacokinetic behavior of the compounds of the present application after single intravenous bolus injection and oral administration, using male C57BL/6 mice or SD male rats as tested animals.
Healthy adult C57BL/6 mice or SD rats (3 rats/group), male, from Shanghai Jihui Laboratory Animal Breeding Co., Ltd. and Charles River Laboratories Co., Ltd.
The intravenous bolus injection and oral groups were consisted of 3 mice or rats, and the dose of intravenous bolus injection was 1 mg/kg in a volume of 5 mL/kg, and the dose of oral administration was 5 mg/kg in a volume of 10 mL/kg. The solvent was 5% DMSO/5% Kolliphor HS15/90% Saline.
After the animals were administered, 0.02 mL of blood was collected intravenously at 0.0833(IV), 0.25, 0.5, 1, 2, 4, 8, and 24 hours. Blood was placed in EDTA-K2 tubes, centrifuged at 4° C. and 4600 rpm for 5 min to separate the plasma, and stored at −80° C.
1) 10 μL of plasma sample was precipitated by adding 200 μL of acetonitrile, vortexed and mixed, and centrifuged for 15 min.
2) The supernatant after treatment was diluted with water, and then analyzed for the concentration of the tested compounds by LC/MS/MS.
• Liquid phase conditions: Shimadzu LC-30AD; • Mass spectrometry conditions: AB Sciex API 5500; • Chromatographic column: Phenomenex Kinetex 2.6 μm C18; • Mobile phase: A: 5 mM ammonium acetate aqueous solution (containing 0.05 vol % of formic acid); B: acetonitrile (containing 0.1 vol % of formic acid) flow rate: 0.5 mL/min;
Pharmacokinetic parameters were calculated using WinNonlin 8.0 and the pharmacokinetic parameters of the drugs administered intravenously and orally to mice or rats are shown in Tables 17 and 18 below. Wherein, “Dose” denotes the administered dose, “CL” denotes the plasma clearance, “Vss” denotes the volume of distribution at steady state of the drug, “T1/2” denotes the half-life of the drug, “AUC” denotes the area under the concentration-time curve. “Cmax” denotes the peak drug concentration, and “F” indicates bioavailability.

[4] = Influence factor tests (stability at temperature, humidity, light; HPLC purity and XRPD); format: physicochemical
Protocol: The purity was assayed using HPLC and the crystal form was assayed using XRPD on day 0, 2 and 7, and the experimental results are shown in Table 11.
The purity was assayed using HPLC and the crystal form was assayed using XRPD on day 0, 5 and 10, and the experimental results are shown in Table 12.

[5] = male, mouse, plasma, C57BL/6 mice, intravenous, 1 mg/kg
[6] = male, mouse, plasma, C57BL/6 mice, oral, 5 mg/kg
[7] = male, rat, plasma, SD rats, intravenous, 1 mg/kg
[8] = male, rat, plasma, SD rats, oral, 5 mg/kg

Structure (SMILES): O=C(OCCc1c[nH]c(=O)c(C(F)(F)F)c1)N1CCN(c2ncc(C(F)(F)F)cn2)CC1 [Crystal form X]
Hygroscopicity evaluation ([1]; listed as crystal form X): slight hygroscopicity
Weight gain at 80% RH ([1]; listed as crystal form X): 1.4%
Crystal form after DVS ([1]; listed as crystal form X): no transformation of the crystal

Structure (SMILES): C[C@@H](COCCC(=O)N1CCN(c2ncc(C(F)(F)F)cn2)CC1)Nc1cn[nH]c(=O)c1C(F)(F)F [RBN-2397]
F ([2]; C57BL/6 mice, oral, 5 mg/kg): 14%
AUC [2, 5]: 288 ng·h/mL
clearance [2, 5]: 56.7 mL/min/kg
Vd ([2]; male, mouse, plasma, C57BL/6 mice, intravenous, 1 mg/kg, read-out: Vss): 0.6 L/kg
AUC [2, 6]: 203 ng·h/mL
Cmax [2, 6]: 612 ng/mL
F ([3]; SD rats, oral, 5 mg/kg): 27%
AUC [3, 7]: 193 ng·h/mL
clearance [3, 7]: 85 mL/min/kg
half-life [3, 7]: 12 min
Vd ([3]; male, rat, plasma, SD rats, intravenous, 1 mg/kg, read-out: Vss): 1.2 L/kg
AUC [3, 8]: 264 ng·h/mL
Cmax [3, 8]: 319 ng/mL

Structure (SMILES): O=C(OCCc1c[nH]c(=O)c(C(F)(F)F)c1)N1CCN(c2ncc(C(F)(F)F)cn2)CC1.[Na+] [Crystal form I]
Hygroscopicity evaluation [1]: Hygroscopic (hygroscopic weight gain of less than 15.0% but not less than 2.0%)
Hygroscopicity evaluation ([1]; listed as crystal form I): had hygroscopicity; also recorded: slightly hygroscopic
Weight gain at 80% RH [1]: 13.29%
Weight gain at 80% RH ([1]; listed as crystal form I): 13.29%
Weight gain at 90% RH [1]: 13.77%
Purity (Area %) ([4]; 25° C./75% RH, day 5): 99.69% Area %
Purity (Area %) ([4]; 25° C./75% RH, day 10): 99.72% Area %
Purity (Area %) ([4]; 25° C./90% RH, day 5): 99.71% Area %
Purity (Area %) ([4]; 25° C./90% RH, day 10): 99.74% Area %
Purity (Area %) ([4]; 40° C., day 5): 99.71% Area %
Purity (Area %) ([4]; 40° C., day 10): 99.70% Area %
Purity (Area %) ([4]; 60° C., day 5): 99.72% Area %
Purity (Area %) ([4]; 60° C., day 10): 99.67% Area %
Purity (Area %) ([4]; Light exposure, day 5): 99.67% Area %
XRPD ([4]; Light exposure, day 5): Crystal form I
Purity (Area %) ([4]; Light exposure, day 10): 99.61% Area %
Purity (Area %) ([4]; T0, day 0): 99.69% Area %
Physicochemical stability (conclusion in words) ([4]; high humidity): a transformation of the crystal occurs under high humidity conditions
Physicochemical stability (conclusion in words) ([4]; high temperature): physicochemical stable at high temperature

The next lines start with results.

F ([2]; C57BL/6 mice, oral, 5 mg/kg): 80%
Exposure in plasma compared with control compound RBN-2397 ([2]; mouse plasma, same dose, intravenous bolus injection and oral administration): significantly higher exposure
F ([3]; SD rats, oral, 5 mg/kg): 47%
Exposure in plasma compared with control compound RBN-2397 ([3]; rat plasma, same dose, intravenous bolus injection and oral administration): significantly higher exposure
Structure (SMILES): O=C(OCCc1c[nH]c(=O)c(C(F)(F)F)c1)N1CCN(c2ncc(C(F)(F)F)cn2)CC1 [Compound of formula (I), 2-(6-oxo-5-(trifluoromethyl)-1,6-dihydropyridin-3-yl)ethyl-4-(5-(trifluoromethyl)pyrimidin-2-yl) piperazine-1-carboxylate]
Inhibition of PARP7 enzyme activity (conclusion in words) (PARP7): can effectively inhibit PARP7 enzyme activity

Weight gain at 80% RH [1]: 1.07%
Weight gain at 80% RH ([1]; listed as crystal form IV): 1.07%
Weight gain at 90% RH [1]: 1.11%
Purity (Area %) ([4]; 40° C./75% RH, day 2): 99.72 Area %
Purity (Area %) ([4]; 40° C./75% RH, day 7): 99.62 Area %
Purity (Area %) ([4]; 60° C., day 2): 99.73 Area %
Purity (Area %) ([4]; 60° C., day 7): 99.65 Area %
Purity (Area %) ([4]; T0, day 0): 99.73 Area %
Physicochemical stability (conclusion in words) ([4]; high humidity): relatively stable
Physicochemical stability (conclusion in words) ([4]; high temperature): relatively stable
Structure (SMILES): O=C(OCCc1c[nH]c(=O)c(C(F)(F)F)c1)N1CCN(c2ncc(C(F)(F)F)cn2)CC1 [Crystal form IV]
Hygroscopicity evaluation ([1]; listed as crystal form IV): slight hygroscopicity; also recorded: slightly hygroscopic
Crystal form after DVS ([1]; listed as crystal form IV): no transformation of the crystal; also recorded: unchanged
